# From patent US20260365670A1, “EGFR INHIBITORS AND USES THEREOF” (DIZAL (JIANGSU) PHARMACEUTICAL CO., LTD., priority 2022, published 2026)
# Like-named read-outs stand apart in the source and are kept apart here.
# Assays:
# EGFR[T790M/C797S/L858R] = target: T1, EGFR[T790M/C797S/L858R] (Homo sapiens, UniProt P00533, C797S/L858R/T790M); experiment: Inhibition of EGFR[T790M/C797S/L858R] biochemical enzymatic activity (HTRF); conditions: EGFR T790M-C797S-L858R, 1 mM ATP, 1 h, room temperature, read-out: IC50 (nM) @T790M- C797S - L858R
# T1 construct: purchased Carna Bio
# How it was run: (§1)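 In a buffer with 5 mM MgCl2, 1 mM MnCl2, 1 mM DTT and 0.01% CHAPS, enzyme turnover of 1 μM biotinylated TK substrate at 1 mM ATP is followed by HTRF after 1 h at room temperature. IC50 is obtained by a four-parameter fit.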
# PC-9 = experiment: Cell proliferation assay, PC-9 cells (CellTiter-Glo, 72 hours); type: cell-based; conditions: PC9 cells, CellTiter-Glo, read-out: PC9 GI50
# How it was run: (§2)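 GI50 is the concentration giving 50% proliferation inhibition. Growth for this was normalised to a baseline viability reading taken when compound was added, and to DMSO wells. PC-9 (500 cells/well) and mutant-EGFR Ba/F3 (5000 cells/well) are treated after overnight seeding in RPMI1640-based medium.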
# EGFR L858R = target: T2, EGFR L858R (Homo sapiens, UniProt P00533, L858R); experiment: Inhibition of EGFR L858R biochemical enzymatic activity (HTRF); conditions: 1 mM ATP, 1 h, room temperature, read-out: IC50 (nM) @L858R
# T2 construct: purchased Carna Bio
# How it was run: as §1
# EGFR L858R/T790M = target: T3, EGFR L858R/T790M (Homo sapiens, UniProt P00533, L858R/T790M); experiment: Inhibition of EGFR L858R/T790M biochemical enzymatic activity (HTRF); conditions: EGFR L858R-T790M, 1 mM ATP, 1 h, room temperature, read-out: IC50 (nM) @L858R-T790M
# T3 construct: purchased Carna Bio
# How it was run: as §1
# EGFR Exon19Del = target: T4, EGFR Exon19Del (Homo sapiens, UniProt P00533, DEL746-750); experiment: Inhibition of EGFR Exon19Del biochemical enzymatic activity (HTRF); conditions: EGFR Del19, 1 mM ATP, 1 h, room temperature, read-out: IC50 @Del19
# T4 construct: purchased Carna Bio
# How it was run: as §1
# EGFR Exon19Del/T790M = target: T5, EGFR Exon19Del/T790M (Homo sapiens, UniProt P00533, DEL746-750/T790M); experiment: Inhibition of EGFR Exon19Del/T790M biochemical enzymatic activity (HTRF); conditions: EGFR Del19-T790M, 1 mM ATP, 1 h, room temperature, read-out: IC50 (nM) @Del19-T790M
# T5 construct: purchased Carna Bio
# How it was run: as §1
# [1] = target: T6, EGFR[T790M/C797S/d746-750] (Homo sapiens, UniProt P00533, C797S/DEL746-750/T790M); experiment: Inhibition of EGFR[T790M/C797S/d746-750] biochemical enzymatic activity (HTRF); conditions: EGFR T790M-C797S-Del19, 1 mM ATP, 1 h, room temperature, read-out: IC50 (nM) @T790M - C797S - Del19
# T6 construct: purchased Carna Bio
# How it was run: as §1
# EGFR (C797S L858R) = target: T7, EGFR (C797S L858R) (Homo sapiens, UniProt P00533, C797S/L858R); experiment: Inhibition of EGFR (C797S L858R) biochemical enzymatic activity (HTRF); conditions: EGFR L858-C797S, 1 mM ATP, 1 h, room temperature, read-out: IC50 (nM) @L858-C797S
# T7 construct: purchased signalchem
# How it was run: as §1
# [2] = test system: Ba/F3 cells expressing EGFR mutations; experiment: Cell proliferation assay, Ba/F3 cells expressing EGFR mutations (CellTiter-Glo, 72 hours); type: cell-based; conditions: CellTiter-Glo
# How it was run: as §2
# EGFR wild type = target: T8, EGFR wild type (Homo sapiens, UniProt P00533); experiment: Inhibition of EGFR wild type biochemical enzymatic activity (HTRF); conditions: EGFR WT, 1 mM ATP, 1 h, room temperature, read-out: IC50 (nM) @WT
# T8 construct: purchased Carna Bio
# How it was run: as §1
# A-431 = experiment: Cell proliferation GI50, A-431 cells (Table 6); type: cell-based
# EGFR (d746-750 C797S) = target: T9, EGFR (d746-750 C797S) (Homo sapiens, UniProt P00533, C797S/DEL746-750); experiment: Inhibition of EGFR (d746-750 C797S) biochemical enzymatic activity (HTRF); conditions: EGFR Del19-C797S, 1 mM ATP, 1 h, room temperature, read-out: IC50 (nM) @Del19-C797S
# T9 construct: purchased signalchem
# How it was run: as §1
# [3] = BaF3 cells, EGFR DEL19-C797S, read-out: DEL19-C797S/BaF3 GI50
# [4] = BaF3 cells, EGFR DEL19-T790-C797S, read-out: DEL19-T790-C797S/BaF3 GI50
# [5] = BaF3 cells, EGFR L858R, read-out: L858R/BaF3 GI50
# [6] = BaF3 cells, EGFR L858R-C797S, read-out: L858R-C797S/BaF3 GI50
# [7] = BaF3 cells, EGFR L858R-T790-C797S, read-out: L858R-T790-C797S/BaF3 GI50
# [8] = BaF3 cells, EGFR L858R-T790M, read-out: L858R-T790M/BaF3 GI50
# [9] = EGFR DEL19-T790M, read-out: DEL19-T790M GI50
# T7 sequence (P00533 25-1210 C797S/L858R): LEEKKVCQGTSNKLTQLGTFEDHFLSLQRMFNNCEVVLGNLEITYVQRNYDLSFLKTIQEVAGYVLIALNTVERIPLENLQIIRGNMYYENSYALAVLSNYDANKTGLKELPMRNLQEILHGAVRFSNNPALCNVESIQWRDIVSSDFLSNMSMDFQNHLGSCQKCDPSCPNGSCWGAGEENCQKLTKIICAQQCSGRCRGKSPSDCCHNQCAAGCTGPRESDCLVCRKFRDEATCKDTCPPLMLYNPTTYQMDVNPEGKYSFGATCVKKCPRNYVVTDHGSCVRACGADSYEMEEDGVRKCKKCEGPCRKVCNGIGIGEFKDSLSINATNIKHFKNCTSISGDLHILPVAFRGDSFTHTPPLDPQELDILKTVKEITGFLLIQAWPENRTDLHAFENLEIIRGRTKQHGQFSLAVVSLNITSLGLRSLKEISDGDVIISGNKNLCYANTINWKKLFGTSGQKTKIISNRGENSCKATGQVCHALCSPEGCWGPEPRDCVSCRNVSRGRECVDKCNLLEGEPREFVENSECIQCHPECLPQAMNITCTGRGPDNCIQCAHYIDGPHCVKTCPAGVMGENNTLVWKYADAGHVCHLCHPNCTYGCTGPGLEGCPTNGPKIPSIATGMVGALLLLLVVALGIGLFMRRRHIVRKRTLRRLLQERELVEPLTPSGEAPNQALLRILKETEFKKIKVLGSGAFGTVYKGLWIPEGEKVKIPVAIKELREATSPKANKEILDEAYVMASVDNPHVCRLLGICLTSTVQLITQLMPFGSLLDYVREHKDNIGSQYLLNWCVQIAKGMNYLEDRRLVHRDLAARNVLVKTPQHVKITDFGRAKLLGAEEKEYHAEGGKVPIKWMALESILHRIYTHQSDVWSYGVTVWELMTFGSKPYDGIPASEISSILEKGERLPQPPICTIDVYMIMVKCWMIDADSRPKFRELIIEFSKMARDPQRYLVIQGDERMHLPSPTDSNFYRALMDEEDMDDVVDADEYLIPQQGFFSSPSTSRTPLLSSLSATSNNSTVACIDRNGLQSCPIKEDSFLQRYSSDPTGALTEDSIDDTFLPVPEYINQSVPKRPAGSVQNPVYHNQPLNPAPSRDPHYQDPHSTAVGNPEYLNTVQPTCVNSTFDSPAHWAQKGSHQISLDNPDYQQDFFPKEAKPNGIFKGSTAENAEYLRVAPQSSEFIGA
# T2 sequence (P00533 25-1210 L858R): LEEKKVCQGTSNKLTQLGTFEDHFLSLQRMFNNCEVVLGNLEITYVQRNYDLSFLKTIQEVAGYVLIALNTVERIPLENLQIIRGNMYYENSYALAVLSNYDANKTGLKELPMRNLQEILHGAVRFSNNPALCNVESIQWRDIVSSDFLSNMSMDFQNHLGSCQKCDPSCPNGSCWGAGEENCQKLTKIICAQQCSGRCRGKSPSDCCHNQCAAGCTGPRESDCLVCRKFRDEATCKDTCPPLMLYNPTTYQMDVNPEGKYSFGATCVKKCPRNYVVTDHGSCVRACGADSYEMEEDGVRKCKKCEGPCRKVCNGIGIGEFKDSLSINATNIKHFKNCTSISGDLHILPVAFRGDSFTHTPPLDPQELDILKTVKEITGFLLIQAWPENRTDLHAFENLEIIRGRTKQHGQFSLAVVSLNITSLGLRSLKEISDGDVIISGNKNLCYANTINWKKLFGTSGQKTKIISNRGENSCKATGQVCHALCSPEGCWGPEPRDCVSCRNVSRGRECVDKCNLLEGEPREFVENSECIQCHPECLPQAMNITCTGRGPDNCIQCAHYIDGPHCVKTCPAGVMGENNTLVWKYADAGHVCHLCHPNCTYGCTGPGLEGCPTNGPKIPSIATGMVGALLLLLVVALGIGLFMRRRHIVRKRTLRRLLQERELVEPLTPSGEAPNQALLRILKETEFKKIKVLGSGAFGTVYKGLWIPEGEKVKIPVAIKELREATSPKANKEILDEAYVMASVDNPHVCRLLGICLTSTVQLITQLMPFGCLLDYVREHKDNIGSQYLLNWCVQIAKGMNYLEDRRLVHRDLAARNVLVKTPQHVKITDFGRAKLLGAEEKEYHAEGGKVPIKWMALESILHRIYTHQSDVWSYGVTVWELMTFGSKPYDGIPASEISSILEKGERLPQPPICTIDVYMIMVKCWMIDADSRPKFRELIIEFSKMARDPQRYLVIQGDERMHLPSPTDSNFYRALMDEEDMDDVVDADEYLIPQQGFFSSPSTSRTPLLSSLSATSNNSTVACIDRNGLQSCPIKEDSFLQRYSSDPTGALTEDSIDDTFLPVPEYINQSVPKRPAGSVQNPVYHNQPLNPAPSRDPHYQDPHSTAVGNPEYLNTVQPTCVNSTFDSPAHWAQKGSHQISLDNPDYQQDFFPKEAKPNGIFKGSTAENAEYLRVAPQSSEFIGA
# T8 sequence (P00533 25-1210): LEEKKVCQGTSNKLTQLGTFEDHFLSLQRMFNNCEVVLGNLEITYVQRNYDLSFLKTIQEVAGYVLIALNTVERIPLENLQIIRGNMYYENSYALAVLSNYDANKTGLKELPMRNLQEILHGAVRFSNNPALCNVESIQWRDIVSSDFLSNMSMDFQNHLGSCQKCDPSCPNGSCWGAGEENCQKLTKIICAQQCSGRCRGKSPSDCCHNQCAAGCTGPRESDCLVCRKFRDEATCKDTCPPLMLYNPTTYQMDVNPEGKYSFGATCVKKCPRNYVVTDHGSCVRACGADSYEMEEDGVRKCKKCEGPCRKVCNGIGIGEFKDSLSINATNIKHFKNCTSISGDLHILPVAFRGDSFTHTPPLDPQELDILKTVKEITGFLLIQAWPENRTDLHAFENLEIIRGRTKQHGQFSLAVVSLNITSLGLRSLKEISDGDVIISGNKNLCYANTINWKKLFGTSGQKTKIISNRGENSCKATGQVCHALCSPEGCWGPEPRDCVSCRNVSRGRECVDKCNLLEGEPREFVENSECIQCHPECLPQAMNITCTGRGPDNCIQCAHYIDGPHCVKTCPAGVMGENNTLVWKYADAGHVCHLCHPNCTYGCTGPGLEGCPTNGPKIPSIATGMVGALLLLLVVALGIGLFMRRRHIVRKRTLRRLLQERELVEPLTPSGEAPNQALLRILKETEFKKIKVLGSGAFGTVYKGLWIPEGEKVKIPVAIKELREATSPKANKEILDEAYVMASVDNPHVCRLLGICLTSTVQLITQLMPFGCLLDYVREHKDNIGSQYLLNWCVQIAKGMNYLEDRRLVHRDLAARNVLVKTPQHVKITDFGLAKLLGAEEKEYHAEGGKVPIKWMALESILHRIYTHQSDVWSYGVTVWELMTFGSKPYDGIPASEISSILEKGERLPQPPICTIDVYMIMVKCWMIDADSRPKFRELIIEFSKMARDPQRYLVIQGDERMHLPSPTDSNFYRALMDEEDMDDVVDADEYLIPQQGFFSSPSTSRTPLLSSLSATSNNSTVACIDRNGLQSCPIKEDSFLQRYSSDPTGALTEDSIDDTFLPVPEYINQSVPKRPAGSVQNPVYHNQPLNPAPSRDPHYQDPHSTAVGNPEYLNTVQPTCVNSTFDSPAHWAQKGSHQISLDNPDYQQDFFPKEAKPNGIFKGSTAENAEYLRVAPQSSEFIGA
# T3 sequence (P00533 25-1210 T790M/L858R): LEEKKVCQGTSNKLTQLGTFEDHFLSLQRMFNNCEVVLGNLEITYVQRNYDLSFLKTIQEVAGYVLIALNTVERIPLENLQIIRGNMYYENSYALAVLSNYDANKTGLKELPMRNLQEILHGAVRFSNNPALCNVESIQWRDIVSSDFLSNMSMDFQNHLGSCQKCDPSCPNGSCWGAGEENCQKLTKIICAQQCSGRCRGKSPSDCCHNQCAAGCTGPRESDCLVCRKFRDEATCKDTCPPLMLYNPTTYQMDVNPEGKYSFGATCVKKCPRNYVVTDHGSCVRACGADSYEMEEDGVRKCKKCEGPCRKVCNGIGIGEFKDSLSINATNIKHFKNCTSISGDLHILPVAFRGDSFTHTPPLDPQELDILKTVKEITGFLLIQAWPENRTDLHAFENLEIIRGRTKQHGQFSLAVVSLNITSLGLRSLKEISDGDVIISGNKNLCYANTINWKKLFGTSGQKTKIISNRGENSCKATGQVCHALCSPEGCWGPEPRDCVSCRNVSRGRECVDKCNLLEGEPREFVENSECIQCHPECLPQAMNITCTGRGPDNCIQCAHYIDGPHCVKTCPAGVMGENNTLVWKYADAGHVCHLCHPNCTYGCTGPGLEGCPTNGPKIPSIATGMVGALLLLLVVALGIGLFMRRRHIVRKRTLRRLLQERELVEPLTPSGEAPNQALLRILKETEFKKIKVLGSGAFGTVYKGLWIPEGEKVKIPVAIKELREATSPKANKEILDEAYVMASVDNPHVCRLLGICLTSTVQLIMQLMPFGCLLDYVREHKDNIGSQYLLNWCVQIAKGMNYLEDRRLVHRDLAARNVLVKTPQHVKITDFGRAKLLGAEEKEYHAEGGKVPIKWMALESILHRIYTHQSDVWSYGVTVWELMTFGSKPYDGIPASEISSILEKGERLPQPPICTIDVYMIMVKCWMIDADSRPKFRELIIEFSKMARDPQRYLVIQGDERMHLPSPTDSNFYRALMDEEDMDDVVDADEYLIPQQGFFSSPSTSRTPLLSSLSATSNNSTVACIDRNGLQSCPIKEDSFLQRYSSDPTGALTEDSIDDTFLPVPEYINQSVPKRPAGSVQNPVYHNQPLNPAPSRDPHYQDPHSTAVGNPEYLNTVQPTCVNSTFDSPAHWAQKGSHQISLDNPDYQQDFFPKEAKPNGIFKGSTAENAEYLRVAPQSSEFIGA
smiles,measurement,setting,value
"COCCN(C)c1ccc2nc3n(c2c1)C12CCC(CN(CCOc4c(cnn4C)-c4cc(cn(C)c4=O)C(=O)N3)C1)C2 (single isomer, unassigned) [Example A90B]",IC50,EGFR[T790M/C797S/L858R],9.3 nM
same,GI50,PC-9,46 nM
same,IC50,EGFR L858R,54 nM
same,IC50,EGFR L858R/T790M,10 nM
same,IC50,EGFR Exon19Del,6.3 nM
same,IC50,EGFR Exon19Del/T790M,5.9 nM
same,IC50,[1],4.9 nM
same,IC50,EGFR (C797S L858R),31 nM
same,GI50,[2]; [3],0.75 nM
same,GI50,[2]; [4],3.9 nM
same,GI50,[2]; [5],4.6 nM
same,GI50,[2]; [6],8 nM
same,GI50,[2]; [7],15 nM
same,GI50,[2]; [8],14 nM
same,GI50,[2]; [9],3.2 nM
same,IC50,EGFR wild type,825 nM
same,GI50,A-431; A-431 cells,3160 nM
same,IC50,EGFR (d746-750 C797S),3.5 nM
"CN1CCC2(CN(c3ccc4nc5n(c4c3)C34CCC(CN(CCOc6c(cnn6C)-c6cc(cn(C)c6=O)C(=O)N5)C3)C4)C2)C(F)(F)C1 (single isomer, unassigned) [Example A91A]",IC50,EGFR[T790M/C797S/L858R],> 5000 nM
same,GI50,PC-9,1300 nM
same,IC50,EGFR L858R,3720 nM
same,IC50,EGFR L858R/T790M,> 5000 nM
same,IC50,EGFR Exon19Del,740 nM
same,IC50,EGFR Exon19Del/T790M,> 5000 nM
same,IC50,[1],> 5000 nM
same,IC50,EGFR (C797S L858R),> 5000 nM
same,GI50,[2]; [3],74 nM
same,GI50,[2]; [4],146 nM
same,GI50,[2]; [5],324 nM
same,GI50,[2]; [6],303 nM
same,GI50,[2]; [7],366 nM
same,GI50,[2]; [8],884 nM
same,GI50,[2]; [9],231 nM
same,IC50,EGFR wild type,> 5000 nM
same,GI50,"A-431; Homo sapiens, A-431, A-431 cells",1180 nM
same,IC50,EGFR (d746-750 C797S),1650 nM
"CN1CCC2(CN(c3ccc4nc5n(c4c3)C34CCC(CN(CCOc6c(cnn6C)-c6cc(cn(C)c6=O)C(=O)N5)C3)C4)C2)C(F)(F)C1 (single isomer, unassigned) [Example A91B]",IC50,EGFR[T790M/C797S/L858R],6.1 nM
same,GI50,PC-9,25 nM
same,IC50,EGFR L858R,11 nM
same,IC50,EGFR L858R/T790M,12 nM
same,IC50,EGFR Exon19Del,4 nM
same,IC50,EGFR Exon19Del/T790M,9.7 nM
same,IC50,[1],6.7 nM
same,IC50,EGFR (C797S L858R),8 nM
same,GI50,[2]; [3],0.75 nM
same,GI50,[2]; [4],2.2 nM
same,GI50,[2]; [5],2.6 nM
same,GI50,[2]; [6],3.9 nM
same,GI50,[2]; [7],4.6 nM
same,GI50,[2]; [8],11 nM
same,GI50,[2]; [9],3.1 nM
same,IC50,EGFR wild type,110 nM
same,GI50,A-431; A-431 cells,1690 nM
same,IC50,EGFR (d746-750 C797S),2.9 nM
"CN1CC2(C1)CN(c1ccc3nc4n(c3c1)C13CCC(CN(CCOc5c(cnn5C)-c5cc(cn(C)c5=O)C(=O)N4)C1)C3)C2 (single isomer, unassigned) [Example A92A]",IC50,EGFR[T790M/C797S/L858R],> 5000 nM
same,GI50,PC-9,522 nM
same,IC50,EGFR L858R,1150 nM
same,IC50,EGFR L858R/T790M,> 5000 nM
same,IC50,EGFR Exon19Del,573 nM
same,IC50,EGFR Exon19Del/T790M,> 5000 nM
same,IC50,[1],3960 nM
same,IC50,EGFR (C797S L858R),2790 nM
same,GI50,[2]; [3],102 nM
same,GI50,[2]; [4],112 nM
same,GI50,[2]; [5],113 nM
same,GI50,[2]; [6],122 nM
same,GI50,[2]; [7],152 nM
same,GI50,[2]; [8],310 nM
same,GI50,[2]; [9],80 nM
same,IC50,EGFR wild type,> 5000 nM
same,GI50,A-431; A-431 cells,2100 nM
same,IC50,EGFR (d746-750 C797S),449 nM
"CN1CC2(C1)CN(c1ccc3nc4n(c3c1)C13CCC(CN(CCOc5c(cnn5C)-c5cc(cn(C)c5=O)C(=O)N4)C1)C3)C2 (single isomer, unassigned) [Example A92B]",IC50,EGFR[T790M/C797S/L858R],2.2 nM
same,GI50,PC-9,9.8 nM
same,IC50,EGFR L858R,3.2 nM
same,IC50,EGFR L858R/T790M,2.3 nM
same,IC50,EGFR Exon19Del,1.5 nM
same,IC50,EGFR Exon19Del/T790M,2.6 nM
same,IC50,[1],2.3 nM
same,IC50,EGFR (C797S L858R),2.6 nM
same,GI50,[2]; [3],0.5 nM
same,GI50,[2]; [4],1.1 nM
same,GI50,[2]; [5],0.82 nM
same,GI50,[2]; [6],1.6 nM
same,GI50,[2]; [7],0.94 nM
same,GI50,[2]; [8],3 nM
same,GI50,[2]; [9],1.2 nM
same,IC50,EGFR wild type,16 nM
same,GI50,A-431; A-431 cells,842 nM
same,IC50,EGFR (d746-750 C797S),1 nM
